Measurements published in paper PMC6222614, “Disubstituted 4-Chloro-3-nitrophenylthiourea Derivatives: Antimicrobial and Cytotoxic Studies” (Molecules : A Journal of Synthetic Chemistry and Natural …, 2018).
≈ marks a conversion by molar mass, not a printed value.

Legend:
[1] = Cytotoxicity against mock-infected MT-4 cells (MTT); type: cell-based, human; settings: human, concentration reducing viability of mock-infected MT-4 cells by 50%
Description: (§1) Cell line supporting the multiplication of Human Immunodeficiency Virus type-1 (HIV-1) was the CD4+ human T-cells, derived from human hematological tumors, containing an integrated HTLV-1 genome (MT-4). Cells were purchased from American Type Culture Collection (ATCC). Human Immunodeficiency Virus type-1 (HIV-1) IIIB laboratory strain was obtained from the supernatant of the persistently infected H9/IIIB cells (NIH 1983).
Exponentially growing MT-4 cells were seeded at an initial density of 1 × 10^5 cells/mL in 96-well plates in RPMI-1640 medium, supplemented with 10% fetal bovine serum (FBS), 100 units/mL penicillin G and 100 μg/mL streptomycin. Cell cultures were then incubated at 37 °C in a humidified, 5% CO2 atmosphere, in the absence or presence of serial dilutions of tested compounds. Cell viability was determined after 96 h at 37 °C by the 3-(4,5-dimethylthiazol-2-yl)-2,5-diphenyl-tetrazolium bromide (MTT) method.

HIV-1 IIIB = assay: Anti-HIV-1 activity: protection of MT-4 cells from virus-induced cytopathogenicity (MTT); type: cell-based, Human Immunodeficiency Virus type-1; settings: Human immunodeficiency virus 1, IIIB, MT4, 96 h; 50% protection of MT-4 cells from HIV-1 induced cytopathogenicity, MTT, 4-day incubation; read-out: HIV-1IIIB EC50
Description: as §1
The activity of compounds against HIV-1 was based on inhibition of virus-induced cytopathogenicity in MT-4 cell acutely infected with a multiplicity of infection (m.o.i.) of 0.01. Briefly, 50 μL of RPMI containing 1 × 10^4 MT-4 cells were added to each well of flat-bottom microtiter trays, containing 50 μL of RPMI without or with serial dilutions of test compounds. Then, 20 μL of a HIV-1 suspension containing 100 CCID50 were added. After a 4-day incubation at 37 °C, cell viability was determined by the MTT method.

B. cereus ATCC 11778 = assay: MIC, twofold serial microdilution; type: cell-based; settings: Bacillus cereus, ATCC11778; standard strain, 18 h, 35 °C
Description: (§2) The antimicrobial activity of the compounds was tested on Gram-positive bacteria (Staphylococcus aureus NCTC 4163, Staphylococcus aureus ATCC 25923, Staphylococcus aureus ATCC 6538, Staphylococcus aureus ATCC 29213, Staphylococcus epidermidis ATCC 12228, Staphylococcus epidermidis ATCC 35984, Enterococcus faecalis ATCC 29212, Bacillus subtilis ATCC 6633, Bacillus cereus ATCC 11778, Micrococcus luteus ATCC 9341, Micrococcus luteus ATCC 10240); Gram-negative rods (Escherichia coli ATCC 10538, Escherichia coli ATCC 25922, Escherichia coli NCTC 8196, Proteus vulgaris NCTC 4635, Pseudomonas aeruginosa ATCC 15442, Pseudomonas aeruginosa NCTC 6749, Pseudomonas aeruginosa ATCC 27863, Bordetella bronchiseptica ATCC 4617) and yeasts (Candida albicans ATCC 10231, Candida albicans ATCC 90028, Candida parapsilosis ATCC 22019). Other microorganisms used were obtained from the collection of the Department of Pharmaceutical Microbiology, Medical University of Warsaw, Poland.
(§3) Antibacterial activity was examined by the disc-diffusion method under standard conditions using Mueller-Hinton II agar medium (Becton Dickinson) according to CLSI (previously NCCLS) guidelines. Antifungal activities were assessed using Mueller-Hinton agar + 2% glucose and 0.5 µg/mL Methylene Blue Dye Medium. Sterile filter paper discs (9 mm diameter, Whatman No 3 chromatography paper) were dripped with tested compound solutions (in DMSO) to load 400 μg of a given compound per disc. Dry discs were placed on the surface of appropriate agar medium. The results (diameter of the growth inhibition zone) were read after 18 h of incubation at 35 °C. Minimal Inhibitory Concentration (MIC) was tested by the twofold serial microdilution method (in 96-well microtiter plates) using Mueller-Hinton Broth medium (Beckton Dickinson) for bacteria or RPMI-1640 medium for Candida species according to CLSI guidelines. The stock solution of tested agent was prepared in DMSO and diluted in sterile water. Concentrations of tested agents ranged from 0.125 to 512 µg/mL. The final inoculum of all studied microorganisms was 10^5 CFU/ mL^−1 (colony forming units per mL). Minimal inhibitory concentrations (the lowest concentration of a tested agent that prevents visible growth of a microorganism) were read after 18 h (bacteria) or 24 h (yeasts) of incubation at 35 °C.

B. subtilis ATCC 6633 = assay: MIC, twofold serial microdilution; type: cell-based; settings: Bacillus subtilis, ATCC6633; standard strain, 18 h, 35 °C
Description: as §2, §3

E. faecalis ATCC 29212 = assay: MIC, twofold serial microdilution; type: cell-based; settings: Enterococcus faecalis, ATCC29212; standard strain, 18 h, 35 °C
Description: as §2, §3

M. luteus ATCC 10240 = assay: MIC, twofold serial microdilution; type: cell-based; settings: Micrococcus luteus, ATCC10240; standard strain, 18 h, 35 °C
Description: as §2, §3

M. luteus ATCC 9341 = assay: MIC, twofold serial microdilution; type: cell-based; settings: Micrococcus luteus, ATCC9341; standard strain, 18 h, 35 °C
Description: as §2, §3

S. aureus ATCC 25923 = assay: MIC, twofold serial microdilution; type: cell-based; settings: Staphylococcus aureus, ATCC25923; standard strain, 18 h, 35 °C
Description: as §2, §3

S. aureus ATCC 29213 = assay: MIC, twofold serial microdilution; type: cell-based; settings: Staphylococcus aureus, ATCC29213; standard strain, 18 h, 35 °C
Description: as §2, §3

S. aureus ATCC 6538 = assay: MIC, twofold serial microdilution; type: cell-based; settings: Staphylococcus aureus, ATCC6538; standard strain, 18 h, 35 °C
Description: as §2, §3

S. aureus NCTC 4163 = assay: MIC, twofold serial microdilution; type: cell-based; settings: Staphylococcus aureus, NCTC4163; standard strain, 18 h, 35 °C
Description: as §2, §3

[2] = system: S. epidermidis ATCC 12228; assay: MIC, twofold serial microdilution; type: cell-based; settings: Staphylococcus epidermidis, ATCC12228; standard strain, 18 h, 35 °C
Description: as §2, §3

[3] = system: S. epidermidis ATCC 35984; assay: MIC, twofold serial microdilution; type: cell-based; settings: Staphylococcus epidermidis, ATCC35984; standard strain, 18 h, 35 °C
Description: as §2, §3

[4] = system: S. epidermidis MRSE 403/11; assay: MIC, hospital methicillin-resistant strain; type: cell-based; settings: Staphylococcus epidermidis
Description: as §2, §3

[5] = system: S. epidermidis MRSE 404/11; assay: MIC, hospital methicillin-resistant strain; type: cell-based; settings: Staphylococcus epidermidis
Description: as §2, §3

[6] = system: S. epidermidis MRSE 405/11; assay: MIC, hospital methicillin-resistant strain; type: cell-based; settings: Staphylococcus epidermidis
Description: as §2, §3

[7] = system: S. epidermidis MRSE 406/11; assay: MIC, hospital methicillin-resistant strain; type: cell-based; settings: Staphylococcus epidermidis
Description: as §2, §3

[8] = system: S. epidermidis MRSE 407/11; assay: MIC, hospital methicillin-resistant strain; type: cell-based; settings: Staphylococcus epidermidis
Description: as §2, §3

[9] = system: S. epidermidis MRSE 409/11; assay: MIC, hospital methicillin-resistant strain; type: cell-based; settings: Staphylococcus epidermidis
Description: as §2, §3

[10] = system: S. epidermidis MRSE 411/11; assay: MIC, hospital methicillin-resistant strain; type: cell-based; settings: Staphylococcus epidermidis
Description: as §2, §3

[11] = system: S. epidermidis MRSE 412/11; assay: MIC, hospital methicillin-resistant strain; type: cell-based; settings: Staphylococcus epidermidis
Description: as §2, §3

[12] = system: S. epidermidis MRSE 413/11; assay: MIC, hospital methicillin-resistant strain; type: cell-based; settings: Staphylococcus epidermidis
Description: as §2, §3

[13] = system: S. epidermidis MRSE 422/11; assay: MIC, hospital methicillin-resistant strain; type: cell-based; settings: Staphylococcus epidermidis
Description: as §2, §3

staphylococci = assay: MIC against staphylococci; type: cell-based; settings: moderate activity
Description: as §2, §3

C=C(C)CNC(=S)Nc1ccc(Cl)c([N+](=O)[O-])c1 [Compound 27, 1-(4-chloro-3-nitrophenyl)-3-(2-methylprop-2-en-1-yl)thiourea]
CC50 at 96 h [1]: 15.5 µM
EC50 (HIV-1 IIIB): > 15.5 µM
MIC (B. cereus ATCC 11778): 8 µg/mL (≈ 28 µM)
MIC (B. subtilis ATCC 6633): 16 µg/mL (≈ 56 µM)
MIC (E. faecalis ATCC 29212): 64 µg/mL (≈ 224 µM)
MIC (M. luteus ATCC 10240): 32 µg/mL (≈ 112 µM)
MIC (M. luteus ATCC 9341): 16 µg/mL (≈ 56 µM)
MIC (S. aureus ATCC 25923): 16 µg/mL (≈ 56 µM)
MIC (S. aureus ATCC 29213): 16 µg/mL (≈ 56 µM)
MIC (S. aureus ATCC 6538): 16 µg/mL (≈ 56 µM)
MIC (S. aureus NCTC 4163): 16 µg/mL (≈ 56 µM)
MIC [2]: 16 µg/mL (≈ 56 µM)
MIC [3]: 16 µg/mL (≈ 56 µM)
MIC [4]: 32 µg/mL (≈ 112 µM)
MIC [5]: 32 µg/mL (≈ 112 µM)
MIC [6]: 32 µg/mL (≈ 112 µM)
MIC [7]: 32 µg/mL (≈ 112 µM)
MIC [8]: 32 µg/mL (≈ 112 µM)
MIC [9]: 32 µg/mL (≈ 112 µM)
MIC [10]: 32 µg/mL (≈ 112 µM)
MIC [11]: 64 µg/mL (≈ 224 µM)
MIC [12]: 32 µg/mL (≈ 112 µM)
MIC [13]: 64 µg/mL (≈ 224 µM)
MIC range towards staphylococci (staphylococci): 8 to 16 µg/mL
melting point: 96 to 98 °C

C=CCNC(=S)Nc1ccc(Cl)c([N+](=O)[O-])c1 [Compound 28, 1-(4-chloro-3-nitrophenyl)-3-prop-2-en-1-ylthiourea]
CC50 at 96 h [1]: 43 µM
EC50 (HIV-1 IIIB): ≥ 43 µM
MIC (B. cereus ATCC 11778): 32 µg/mL (≈ 118 µM)
MIC (B. subtilis ATCC 6633): 32 µg/mL (≈ 118 µM)
MIC (E. faecalis ATCC 29212): 64 µg/mL (≈ 236 µM)
MIC (M. luteus ATCC 10240): 32 µg/mL (≈ 118 µM)
MIC (M. luteus ATCC 9341): 32 µg/mL (≈ 118 µM)
MIC (S. aureus ATCC 25923): 32 µg/mL (≈ 118 µM)
MIC (S. aureus ATCC 29213): 64 µg/mL (≈ 236 µM)
MIC (S. aureus ATCC 6538): 32 µg/mL (≈ 118 µM)
MIC (S. aureus NCTC 4163): 64 µg/mL (≈ 236 µM)
MIC [2]: 32 µg/mL (≈ 118 µM)
MIC [3]: 32 µg/mL (≈ 118 µM)
MIC [4]: 64 µg/mL (≈ 236 µM)
MIC [5]: 64 µg/mL (≈ 236 µM)
MIC [6]: 64 µg/mL (≈ 236 µM)
MIC [7]: 64 µg/mL (≈ 236 µM)
MIC [8]: 64 µg/mL (≈ 236 µM)
MIC [9]: 64 µg/mL (≈ 236 µM)
MIC [10]: 64 µg/mL (≈ 236 µM)
MIC [11]: 128 µg/mL (≈ 471 µM)
MIC [12]: 64 µg/mL (≈ 236 µM)
MIC [13]: 128 µg/mL (≈ 471 µM)
melting point: 112 to 114 °C

CSCCCNC(=S)Nc1ccc(Cl)c([N+](=O)[O-])c1 [Compound 29, 1-(4-chloro-3-nitrophenyl)-3-[3-(methylsulfanyl)propyl]thiourea]
CC50 at 96 h [1]: 33.7 µM
EC50 (HIV-1 IIIB): > 33.7 µM
MIC (B. cereus ATCC 11778): 8 µg/mL (≈ 25 µM)
MIC (B. subtilis ATCC 6633): 16 µg/mL (≈ 50 µM)
MIC (E. faecalis ATCC 29212): 64 µg/mL (≈ 200 µM)
MIC (M. luteus ATCC 10240): 32 µg/mL (≈ 100 µM)
MIC (M. luteus ATCC 9341): 16 µg/mL (≈ 50 µM)
MIC (S. aureus ATCC 25923): 16 µg/mL (≈ 50 µM)
MIC (S. aureus ATCC 29213): 16 µg/mL (≈ 50 µM)
MIC (S. aureus ATCC 6538): 16 µg/mL (≈ 50 µM)
MIC (S. aureus NCTC 4163): 16 µg/mL (≈ 50 µM)
MIC [2]: 16 µg/mL (≈ 50 µM)
MIC [3]: 16 µg/mL (≈ 50 µM)
MIC [4]: 32 µg/mL (≈ 100 µM)
MIC [5]: 32 µg/mL (≈ 100 µM)
MIC [6]: 32 µg/mL (≈ 100 µM)
MIC [7]: 32 µg/mL (≈ 100 µM)
MIC [8]: 32 µg/mL (≈ 100 µM)
MIC [9]: 32 µg/mL (≈ 100 µM)
MIC [10]: 32 µg/mL (≈ 100 µM)
MIC [11]: 32 µg/mL (≈ 100 µM)
MIC [12]: 32 µg/mL (≈ 100 µM)
MIC [13]: 32 µg/mL (≈ 100 µM)
MIC range towards staphylococci (staphylococci): 8 to 16 µg/mL
melting point: 102 to 103.5 °C
